What was measured:
[1] = test system: transgenic (Gsα overexpressing) and wild-type control mice; assay: Left ventricular contractility (LV dP/dt) by Millar micromanometer with heart rate held constant by pacing
[2] = test system: transgenic (Gsα overexpressing) and control mice; assay: M-mode echocardiography and ECG during graded intravenous infusion of sympathomimetic amines in anesthetized mice
rats = conditions: infusion for several weeks; cited from earlier work
mice = conditions: chronic administration; cited from earlier work
[3] = TG mice, norepinephrine infusion 0.05 μg/kg/min
[4] = TG mice, norepinephrine infusion 0.1 μg/kg/min
[5] = TG mice, norepinephrine infusion 0.2 μg/kg/min
[6] = TG mice, norepinephrine infusion 0.2 μg/kg/min, listed as Norepinephrine
[7] = control mice, norepinephrine infusion 0.1 μg/kg/min
[8] = control mice, norepinephrine infusion 0.2 μg/kg/min
[9] = control mice, norepinephrine infusion 0.2 μg/kg/min, listed as Norepinephrine
[10] = control mice, norepinephrine infusion 0.4 μg/kg/min
[11] = TG mice, isoproterenol infusion 0.005 μg/kg/min
[12] = TG mice, isoproterenol infusion 0.01 μg/kg/min
[13] = TG mice, isoproterenol infusion 0.02 μg/kg/min
[14] = TG mice, isoproterenol infusion 0.02 μg/kg/min, listed as Isoproterenol
[15] = control mice, isoproterenol infusion 0.01 μg/kg/min
[16] = control mice, isoproterenol infusion 0.02 μg/kg/min
[17] = control mice, isoproterenol infusion 0.02 μg/kg/min, listed as Isoproterenol
[18] = control mice, isoproterenol infusion 0.04 μg/kg/min

## NC[C@H](O)c1ccc(O)c(O)c1 [norepinephrine]
[1]; transgenic mice, heart rate held constant (8.3±1.2 Hz), norepinephrine 0.1 μg/kg/min
  Increase of left ventricular contractility (LV dP/dt) from baseline: 65±8%
[1]; wild-type control mice, heart rate held constant (6.0±0.0 Hz), norepinephrine 0.1 μg/kg/min, baseline 7292±461 mm Hg/sec
  Increase of left ventricular contractility (LV dP/dt) from baseline: 28±4%
[2]; [3]
  Ejection Fraction: 79.8 ± 4.0%
  Fractional Shortening: 41.9 ± 3.9%
  Heart Rate: 320 ± 13 beats/min
  LVID end-diastole: 3.6 ± 0.1 mm
  LVID end-systole: 2.1 ± 0.1 mm
[2]; [4]
  Ejection Fraction: 88.3 ± 3.8%
  Fractional Shortening: 52.2 ± 4.8%
  Heart Rate: 322 ± 16 beats/min
  LVID end-diastole: 3.6 ± 0.2 mm
  LVID end-systole: 1.7 ± 0.2 mm
[2]; [5]
  Ejection Fraction: 93±2%
  Fractional Shortening: 59±4%
  Heart Rate: 341 ± 18 beats/min
  LVID end-diastole: 3.6 mm
  LVID end-systole: 1.5 ± 0.2 mm
[2]; [6]
  Ejection Fraction: 92.8 ± 2.1%
  Fractional Shortening: 59.4 ± 4.1%
[2]; [7]
  Ejection Fraction: 78.3 ± 0.1%
  Fractional Shortening: 39.9 ± 0.5%
  Heart Rate: 241 ± 27 beats/min
  LVID end-diastole: 4.0 ± 0.1 mm
  LVID end-systole: 2.4 ± 0.1 mm
[2]; [8]
  Ejection Fraction: 85±3%
  Fractional Shortening: 47±3%
  Heart Rate: 252 ± 33 beats/min
  LVID end-diastole: 4.1 ± 0.1 mm
  LVID end-systole: 2.2 mm
[2]; [9]
  Ejection Fraction: 84.8%
  Fractional Shortening: 47.0%
[2]; [10]
  Ejection Fraction: 92.3 ± 2.0%
  Fractional Shortening: 58.2 ± 3.9%
  Heart Rate: 272 ± 44 beats/min
  LVID end-diastole: 4.0 ± 0.1 mm
  LVID end-systole: 1.7 ± 0.2 mm
[2]; norepinephrine infusion, either group (control or transgenic)
  Chronotropic effect: no significant chronotropic effect
[2]; norepinephrine infusion, transgenic or control group
  Effect on left ventricular end-diastolic dimensions: no effect

## CC(C)NCC(O)c1ccc(O)c(O)c1 (centres unmarked) [isoproterenol]
[1]; transgenic mice, heart rate held constant (9.0-0.6 Hz), isoproterenol 0.02 μg/kg/min
  Increase of left ventricular contractility (LV dP/dt) from baseline: 33±2%
[1]; wild-type control mice, heart rate held constant (8.0±0.0 Hz), isoproterenol 0.02 μg/kg/min, baseline 6923±281 mm Hg/sec
  Increase of left ventricular contractility (LV dP/dt) from baseline: 13±2%
[2]; [11]
  Ejection Fraction: 80.6 ± 3.2%
  Fractional Shortening: 42.5 ± 3.2%
  Heart Rate: 369 ± 12 beats/min
  LVID end-diastole: 3.5 ± 0.3 mm
  LVID end-systole: 2.0 ± 0.1 mm
[2]; [12]
  Ejection Fraction: 89.5 ± 2.6%
  Fractional Shortening: 53.5 ± 3.5%
  Heart Rate: 389 ± 10 beats/min
  LVID end-diastole: 3.4 ± 0.2 mm
  LVID end-systole: 1.6 ± 0.1 mm
[2]; [13]
  Ejection Fraction: 96±1%
  Fractional Shortening: 68±4%
  Heart Rate: 433 beats/min
  LVID end-diastole: 3.1 mm
  LVID end-systole: 1.0 ± 0.1 mm
[2]; [14]
  Ejection Fraction: 96.3 ± 1.3%
  Fractional Shortening: 67.9 ± 4.2%
[2]; [15]
  Ejection Fraction: 76.7 ± 1.2%
  Fractional Shortening: 38.5 ± 1.1%
  Heart Rate: 213 ± 16 beats/min
  LVID end-diastole: 4.0 ± 0.1 mm
  LVID end-systole: 2.4 ± 0.0 mm
[2]; [16]
  Ejection Fraction: 86±3%
  Fractional Shortening: 48±3%
  Heart Rate: 236 ± 8 beats/min
  LVID end-diastole: 3.9 ± 0.1 mm
  LVID end-systole: 2.0 mm
[2]; [17]
  Ejection Fraction: 85.8%
  Fractional Shortening: 48.3%
[2]; [18]
  Ejection Fraction: 94.1 ± 2.0%
  Fractional Shortening: 62.8 ± 5.7%
  Heart Rate: 289 beats/min
  LVID end-diastole: 3.6 ± 0.1 mm
  LVID end-systole: 1.3 ± 0.2 mm
[2]; increasing doses of isoproterenol, both groups
  Left ventricular end-diastolic dimensions: decreased dose-dependently
rats
  Myocardial pathology: myocardial hypertrophy with cellular necrosis and replacement fibrosis
mice
  Hypertrophic response: enhanced hypertrophic responses

— US6333447A, “Transgenic model of heart failure” (The General Hospital Corporation, priority 1996, dated 2001)
